Assay results published in PubChem BioAssay (NCI).
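Dose response: 5 concentrations. Exposure: 48 h. Format: 96-well plates. Endpoint: linear interpolation; highest concentration if not reached. GI50 = concentration required for 50% inhibition of growth. The concentration for full growth arrest is given as TGI.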

How the values were obtained:
Test in all cases: NCI-60 cell line screen, 48 h
[1] = system: 786-0 renal
[2] = system: A498 renal
[3] = system: ACHN renal
[4] = system: CAKI-1 renal
[5] = system: CCRF-CEM leukemia
[6] = system: COLO 205 colon
[7] = system: DLD-1 colon
[8] = system: DMS 114 small cell lung
[9] = system: DMS 273 small cell lung
[10] = system: EKVX NSCLC
[11] = system: HCC-2998 colon
[12] = system: HCT-15 colon
[13] = system: HL-60(TB) leukemia
[14] = system: HOP-18 NSCLC
[15] = system: HOP-62 NSCLC
[16] = system: HOP-92 NSCLC
[17] = system: HT29 colon
[18] = system: IGROV1 ovarian
[19] = system: K-562 leukemia
[20] = system: KM12 colon
[21] = system: KM20L2 colon
[22] = system: LOX IMVI melanoma
[23] = system: LXFL 529 NSCLC
[24] = system: M14 melanoma
[25] = system: MALME-3M melanoma
[26] = system: MOLT-4 leukemia
[27] = system: NCI-H226 lung
[28] = system: NCI-H23 lung
[29] = system: NCI-H460 lung
[30] = system: NCI-H522 lung
[31] = system: OVCAR-3 ovarian
[32] = system: OVCAR-4 ovarian
[33] = system: OVCAR-5 ovarian
[34] = system: OVCAR-8 ovarian
[35] = system: RPMI-8226 leukemia
[36] = system: RXF-631 renal
[37] = system: SF-268 CNS
[38] = system: SF-295 CNS
[39] = system: SF-539 CNS
[40] = system: SK-MEL-2 melanoma
[41] = system: SK-MEL-28 melanoma
[42] = system: SK-MEL-5 melanoma
[43] = system: SK-OV-3 ovarian
[44] = system: SN12C renal
[45] = system: SNB-19 CNS
[46] = system: SNB-75 CNS
[47] = system: SR leukemia
[48] = system: SW-620 colon
[49] = system: U251 CNS
[50] = system: UACC-257 melanoma
[51] = system: UACC-62 melanoma
[52] = system: UO-31 renal
[53] = system: A549 NSCLC
[54] = system: HCT-116 colon
[55] = system: M19-MEL melanoma
[56] = system: RXF 393 renal
[57] = system: SNB-78 CNS
[58] = system: TK-10 renal

CC([O-])=C1C(=O)c2ccccc2C1=O.CC([O-])=C1C(=O)c2ccccc2C1=O.CC[O-].CC[O-].[Ti+4]
GI50 [1]: > 100 µM
TGI [1]: > 100 µM
GI50 [2]: > 100 µM
TGI [2]: > 100 µM
GI50 [3]: > 100 µM
TGI [3]: > 100 µM
GI50 [4]: 59.5 µM
TGI [4]: > 100 µM
GI50 [5]: > 100 µM
TGI [5]: > 100 µM
GI50 [6]: 91.7 µM
TGI [6]: > 100 µM
GI50 [7]: > 100 µM
TGI [7]: > 100 µM
GI50 [8]: > 100 µM
TGI [8]: > 100 µM
GI50 [9]: > 100 µM
TGI [9]: > 100 µM
GI50 [10]: > 100 µM
TGI [10]: > 100 µM
GI50 [11]: > 100 µM
TGI [11]: > 100 µM
GI50 [12]: > 100 µM
TGI [12]: > 100 µM
GI50 [13]: > 100 µM
TGI [13]: > 100 µM
GI50 [14]: > 100 µM
TGI [14]: > 100 µM
GI50 [15]: > 100 µM
TGI [15]: > 100 µM
GI50 [16]: > 100 µM
TGI [16]: > 100 µM
GI50 [17]: > 100 µM
TGI [17]: > 100 µM
GI50 [18]: > 100 µM
TGI [18]: > 100 µM
GI50 [19]: > 100 µM
TGI [19]: > 100 µM
GI50 [20]: > 100 µM
TGI [20]: > 100 µM
GI50 [21]: > 100 µM
TGI [21]: > 100 µM
GI50 [22]: > 100 µM
TGI [22]: > 100 µM
GI50 [23]: 87.5 µM
TGI [23]: > 100 µM
GI50 [24]: > 100 µM
TGI [24]: > 100 µM
GI50 [25]: > 100 µM
TGI [25]: > 100 µM
GI50 [26]: > 100 µM
TGI [26]: > 100 µM
GI50 [27]: > 100 µM
TGI [27]: > 100 µM
GI50 [28]: > 100 µM
TGI [28]: > 100 µM
GI50 [29]: > 100 µM
TGI [29]: > 100 µM
GI50 [30]: > 100 µM
TGI [30]: > 100 µM
GI50 [31]: > 100 µM
TGI [31]: > 100 µM
GI50 [32]: > 100 µM
TGI [32]: > 100 µM
GI50 [33]: > 100 µM
TGI [33]: > 100 µM
GI50 [34]: > 100 µM
TGI [34]: > 100 µM
GI50 [35]: > 100 µM
TGI [35]: > 100 µM
GI50 [36]: > 100 µM
TGI [36]: > 100 µM
GI50 [37]: > 100 µM
TGI [37]: > 100 µM
GI50 [38]: > 100 µM
TGI [38]: > 100 µM
GI50 [39]: > 100 µM
TGI [39]: > 100 µM
GI50 [40]: > 100 µM
TGI [40]: > 100 µM
GI50 [41]: > 100 µM
TGI [41]: > 100 µM
GI50 [42]: > 100 µM
TGI [42]: > 100 µM
GI50 [43]: > 100 µM
TGI [43]: > 100 µM
GI50 [44]: > 100 µM
TGI [44]: > 100 µM
GI50 [45]: 44.1 µM
TGI [45]: > 100 µM
GI50 [46]: > 100 µM
TGI [46]: > 100 µM
GI50 [47]: > 100 µM
TGI [47]: > 100 µM
GI50 [48]: > 100 µM
TGI [48]: > 100 µM
GI50 [49]: > 100 µM
TGI [49]: > 100 µM
GI50 [50]: > 100 µM
TGI [50]: > 100 µM
GI50 [51]: > 100 µM
TGI [51]: > 100 µM
GI50 [52]: > 100 µM
TGI [52]: > 100 µM

O=c1cccc(-c2cccc(=O)[nH]2)[nH]1
TGI [1]: > 100 µM
TGI [53]: > 100 µM
TGI [3]: > 100 µM
TGI [4]: > 100 µM
TGI [5]: > 100 µM
TGI [6]: > 100 µM
TGI [7]: > 100 µM
TGI [8]: > 100 µM
TGI [9]: > 100 µM
TGI [10]: > 100 µM
TGI [11]: > 100 µM
TGI [54]: > 100 µM
TGI [12]: > 100 µM
TGI [13]: > 100 µM
TGI [14]: > 100 µM
TGI [16]: 96.5 µM
TGI [17]: > 100 µM
TGI [18]: > 100 µM
TGI [19]: > 100 µM
TGI [20]: > 100 µM
TGI [22]: > 100 µM
TGI [23]: > 100 µM
TGI [24]: > 100 µM
TGI [55]: > 100 µM
TGI [25]: > 100 µM
TGI [26]: > 100 µM
TGI [27]: > 100 µM
TGI [28]: > 100 µM
TGI [29]: > 100 µM
TGI [31]: > 100 µM
TGI [34]: > 100 µM
TGI [35]: > 100 µM
TGI [56]: > 100 µM
TGI [36]: > 100 µM
TGI [38]: > 100 µM
TGI [39]: > 100 µM
TGI [41]: > 100 µM
TGI [42]: > 100 µM
TGI [43]: > 100 µM
TGI [44]: > 100 µM
TGI [46]: > 100 µM
TGI [57]: > 100 µM
TGI [48]: > 100 µM
TGI [58]: > 100 µM
TGI [49]: > 100 µM
TGI [50]: > 100 µM
TGI [51]: > 100 µM
TGI [52]: > 100 µM

CC(C)N(C(=O)C12C3C4C1C1C2C3C41C(N)=O)C(C)C (stereo not given)
TGI [1]: > 100 µM
TGI [2]: > 100 µM
TGI [53]: > 100 µM
TGI [3]: > 100 µM
TGI [4]: > 100 µM
TGI [5]: > 100 µM
TGI [6]: > 100 µM
TGI [8]: > 100 µM
TGI [9]: > 100 µM
TGI [10]: > 100 µM
TGI [11]: > 100 µM
TGI [12]: > 100 µM
TGI [15]: > 100 µM
TGI [16]: > 100 µM
TGI [18]: > 100 µM
TGI [19]: > 100 µM
TGI [21]: > 100 µM
TGI [23]: > 100 µM
TGI [24]: > 100 µM
TGI [55]: > 100 µM
TGI [25]: > 100 µM
TGI [26]: > 100 µM
TGI [30]: > 100 µM
TGI [31]: > 100 µM
TGI [34]: > 100 µM
TGI [36]: > 100 µM
TGI [37]: > 100 µM
TGI [38]: > 100 µM
TGI [39]: > 100 µM
TGI [42]: > 100 µM
TGI [43]: > 100 µM
TGI [44]: > 100 µM
TGI [45]: > 100 µM
TGI [57]: > 100 µM
TGI [47]: > 100 µM
TGI [48]: > 100 µM
TGI [49]: > 100 µM
TGI [52]: > 100 µM
